Data from patent US10434103B2, “Crystal of 3,5-disubstituted benzene alkynyl compound” (TAIHO PHARMACEUTICAL CO., LTD., priority 2015, dated 2019).

How the values were obtained:
[1] = Differential scanning calorimetry (DSC), phase transition on heating; conditions: when the temperature was increased (10° C./min)
Procedure: DSC measurement was performed under the following conditions.
Device: TA Instruments Q1000
Sample Container: made of aluminum
Temperature Increase Rate: 10° C./min
Atmospheric Gas: Nitrogen
Nitrogen Gas Flow: 50 ml/min

[2] = Oral absorbability: plasma concentration of compound 1 after oral administration to mice; conditions: BALB/c mice, 50 mg/kg, suspension in 0.5% HPMC aqueous solution, plasma sampled 0.5-6 hours
Procedure: (§1) After 0.5, 1, 2, 4, and 6 hours from administration, blood of each mouse was collected from the retro-orbital sinus, and the concentration of compound 1 in plasma was measured.

in vivo = conditions: BALB/c, mouse, plasma, po, 50 mg/kg
Procedure: as §1

SMILES | peak that suggests a phase transition in DSC measurement [1] | AUC [2] [µM·h] | AUC (in vivo) [µM·h]
C=CC(=O)N1CC[C@H](n2nc(C#Cc3cc(OC)cc(OC)c3)c3c(N)ncnc32)C1 [Crystal II, (S)-1-(3-(4-amino-3-((3,5-dimethoxyphenyl)ethynyl)-1H-pyrazolo[3,4-d]pyrimidin-1-yl)-1-pyrrolidinyl)-2-propen-1-one] | did not exhibit a peak that suggests a phase transition | 4.99 | 
C=CC(=O)N1CC[C@H](n2nc(C#Cc3cc(OC)cc(OC)c3)c3c(N)ncnc32)C1 [Crystal I, (S)-1-(3-(4-amino-3-((3,5-dimethoxyphenyl)ethynyl)-1H-pyrazolo[3,4-d]pyrimidin-1-yl)-1-pyrrolidinyl)-2-propen-1-one] | did not exhibit a peak that suggests a phase transition |  | 9.82
